# Laboratory results as given in ChEMBL document CHEMBL1201862, “PubChem BioAssay data set” (2004).
#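 These data come from cells grown in 96-well plates and exposed to compound for 48 hours at five concentrations. At the GI50, growth is halved.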 Activity calls are given as the source filed them. Cut-off read from the data, not from the text of the source: active = GI50 up to about 1.1 µM and inactive = higher. Where a SMILES comes first, the peptide text is derived from it. [ ]: non-standard residue; d: D form. The star is where a group is joined. Phe(2-OMe) = COc1ccccc1C[CH](N)C(=O)O; Cbz = O=C(OCc1ccccc1)*; OBn = c1ccc(CO*)cc1
# Legend:
# Experiment in all cases: DTP human tumour cell line panel, 48 h
# M14 = test system: M14
# OVCAR-5 = test system: OVCAR-5
# NCI-H522 = test system: NCI-H522
# PC-3 = test system: PC-3
# RPMI-8226 = test system: RPMI-8226
# UACC-62 = test system: UACC-62
# A549 = test system: A549
# HCT-15 = test system: HCT-15
# RXF 393 = test system: RXF 393
# HCT-116 = test system: HCT-116
# ACHN = test system: ACHN
# COLO 205 = test system: COLO 205
# SK-OV-3 = test system: SK-OV-3
# MDA-MB-435 = test system: MDA-MB-435
# Malme-3M = test system: Malme-3M
# BT-549 = test system: BT-549
# SNB-75 = test system: SNB-75
# HL-60 = test system: HL-60
# UACC-257 = test system: UACC-257
Structure (SMILES),GI50 (M14),GI50 (OVCAR-5),GI50 (NCI-H522),GI50 (PC-3),GI50 (RPMI-8226),GI50 (UACC-62),GI50 (A549),GI50 (HCT-15) [µM],GI50 (RXF 393),GI50 (HCT-116),GI50 (ACHN),GI50 (COLO 205),GI50 (SK-OV-3),GI50 (MDA-MB-435),GI50 (Malme-3M),GI50 (BT-549),GI50 (SNB-75),GI50 (HL-60),GI50 (UACC-257)
CCN(CC)CCn1ncc2c(N)ncnc21,> 100 µM (inactive),> 100 µM (inactive),> 100 µM (inactive),> 100 µM (inactive),> 100 µM (inactive),> 100 µM (inactive),> 100 µM (inactive),> 100,> 100 µM (inactive),> 100 µM (inactive),> 100 µM (inactive),> 100 µM (inactive),> 100 µM (inactive),> 100 µM (inactive),> 100 µM (inactive),> 100 µM (inactive),–,–,–
N#Cc1nc(-c2ccsc2)oc1N,> 100 µM (inactive),> 100 µM (inactive),–,> 100 µM (inactive),77.4 µM (inactive),> 100 µM (inactive),> 100 µM (inactive),> 100,> 100 µM (inactive),> 100 µM (inactive),> 100 µM (inactive),–,> 100 µM (inactive),> 100 µM (inactive),–,–,57 µM (inactive),> 100 µM (inactive),> 100 µM (inactive)
O=C1CCC(=O)C1=NNc1cc(Cl)cc(Cl)c1,> 100 µM (inactive),> 100 µM (inactive),–,–,32.7 µM (inactive),> 100 µM (inactive),> 100 µM (inactive),55.8,> 100 µM (inactive),76.4 µM (inactive),> 100 µM (inactive),36.6 µM (inactive),> 100 µM (inactive),–,> 100 µM (inactive),–,> 100 µM (inactive),63.5 µM (inactive),> 100 µM (inactive)
O=C1C2CC=CCC2C(=O)N1n1c(-c2ccccc2)n[nH]c1=O (stereo unspecified),> 100 µM (inactive),> 100 µM (inactive),> 100 µM (inactive),> 100 µM (inactive),> 100 µM (inactive),> 100 µM (inactive),> 100 µM (inactive),> 100,> 100 µM (inactive),> 100 µM (inactive),> 100 µM (inactive),> 100 µM (inactive),> 100 µM (inactive),> 100 µM (inactive),> 100 µM (inactive),> 100 µM (inactive),–,–,> 100 µM (inactive)
CCOC(=O)Nc1nn[nH]c1Cl,> 100 µM (inactive),> 100 µM (inactive),> 100 µM (inactive),> 100 µM (inactive),> 100 µM (inactive),> 100 µM (inactive),> 100 µM (inactive),> 100,> 100 µM (inactive),> 100 µM (inactive),–,> 100 µM (inactive),> 100 µM (inactive),> 100 µM (inactive),> 100 µM (inactive),> 100 µM (inactive),> 100 µM (inactive),–,> 100 µM (inactive)
CCOC(=O)/C=C(/C(=O)OCC)n1ccc(=O)n(Cc2cn(CCCCOC(C)=O)nn2)c1=O,–,> 100 µM (inactive),13.6 µM (inactive),> 100 µM (inactive),89.3 µM (inactive),> 100 µM (inactive),> 100 µM (inactive),59.4,> 100 µM (inactive),> 100 µM (inactive),40.3 µM (inactive),31.8 µM (inactive),> 100 µM (inactive),> 100 µM (inactive),–,> 100 µM (inactive),> 100 µM (inactive),–,> 100 µM (inactive)
COc1ccc2c(c1)C(N)CC2=O (stereo unspecified),> 100 µM (inactive),> 100 µM (inactive),> 100 µM (inactive),18.9 µM (inactive),> 100 µM (inactive),> 100 µM (inactive),19.1 µM (inactive),> 100,19 µM (inactive),> 100 µM (inactive),> 100 µM (inactive),> 100 µM (inactive),> 100 µM (inactive),> 100 µM (inactive),–,> 100 µM (inactive),> 100 µM (inactive),–,> 100 µM (inactive)
N#CC(C#N)=C1SC(=N\c2ccccc2)/C(=N/c2ccccc2)N1c1ccccc1,25.3 µM (inactive),20.7 µM (inactive),1.94 µM (inactive),7.6 µM (inactive),5.75 µM (inactive),5.79 µM (inactive),58.9 µM (inactive),2.03,11 µM (inactive),14.4 µM (inactive),20 µM (inactive),10.1 µM (inactive),> 100 µM (inactive),10.6 µM (inactive),22.2 µM (inactive),8.24 µM (inactive),30 µM (inactive),–,15.7 µM (inactive)
Cc1cc2c(c(C(=O)NCC(=O)O)c1)Oc1c(cc(C)cc1C(=O)NCC(=O)O)S2,> 100 µM (inactive),> 100 µM (inactive),> 100 µM (inactive),> 100 µM (inactive),> 100 µM (inactive),> 100 µM (inactive),> 100 µM (inactive),> 100,> 100 µM (inactive),> 100 µM (inactive),> 100 µM (inactive),> 100 µM (inactive),> 100 µM (inactive),> 100 µM (inactive),> 100 µM (inactive),> 100 µM (inactive),> 100 µM (inactive),–,> 100 µM (inactive)
Clc1nc(NCCc2ccccc2)c2ncn(-c3ccccc3)c2n1,21.5 µM (inactive),37.9 µM (inactive),16 µM (inactive),16.1 µM (inactive),18.5 µM (inactive),20.8 µM (inactive),26.4 µM (inactive),25.5,24.8 µM (inactive),22 µM (inactive),29.4 µM (inactive),23.2 µM (inactive),20.4 µM (inactive),16.3 µM (inactive),21.1 µM (inactive),23.1 µM (inactive),18 µM (inactive),–,15.8 µM (inactive)
C=C(C)CCN(C(=O)OC(C)(C)C)c1cc(C(C)C)co1,> 100 µM (inactive),> 100 µM (inactive),–,22.4 µM (inactive),20.2 µM (inactive),86.9 µM (inactive),48.4 µM (inactive),> 100,–,47.9 µM (inactive),73.6 µM (inactive),58.2 µM (inactive),> 100 µM (inactive),96.2 µM (inactive),–,12.2 µM (inactive),–,11.8 µM (inactive),34 µM (inactive)
N#Cc1nc(CN2C(=O)c3ccccc3C2=O)oc1N,> 100 µM (inactive),> 100 µM (inactive),> 100 µM (inactive),> 100 µM (inactive),> 100 µM (inactive),–,> 100 µM (inactive),> 100,> 100 µM (inactive),> 100 µM (inactive),> 100 µM (inactive),> 100 µM (inactive),> 100 µM (inactive),> 100 µM (inactive),> 100 µM (inactive),–,> 100 µM (inactive),–,> 100 µM (inactive)
O=c1[nH]nc(Cc2ccccc2)n1/N=C/c1cccs1,> 100 µM (inactive),> 100 µM (inactive),–,> 100 µM (inactive),47.1 µM (inactive),36 µM (inactive),> 100 µM (inactive),> 100,35.2 µM (inactive),> 100 µM (inactive),> 100 µM (inactive),> 100 µM (inactive),> 100 µM (inactive),> 100 µM (inactive),> 100 µM (inactive),> 100 µM (inactive),> 100 µM (inactive),–,> 100 µM (inactive)
Cc1cc(N(CCC#N)CCC#N)ccc1C(/N=N/c1ccc(C(=O)O)cc1)=N\NC(=O)c1ccccc1,36.6 µM (inactive),> 100 µM (inactive),13.2 µM (inactive),26.1 µM (inactive),> 100 µM (inactive),39.8 µM (inactive),25.8 µM (inactive),20.9,17.7 µM (inactive),35 µM (inactive),59.7 µM (inactive),28.5 µM (inactive),49.2 µM (inactive),3.94 µM (inactive),22.5 µM (inactive),55.6 µM (inactive),34.3 µM (inactive),–,65.2 µM (inactive)
CNn1c(-c2ccc(C)cc2)n[nH]c1=O,> 100 µM (inactive),> 100 µM (inactive),> 100 µM (inactive),> 100 µM (inactive),> 100 µM (inactive),> 100 µM (inactive),> 100 µM (inactive),> 100,> 100 µM (inactive),> 100 µM (inactive),> 100 µM (inactive),> 100 µM (inactive),> 100 µM (inactive),> 100 µM (inactive),> 100 µM (inactive),> 100 µM (inactive),–,–,> 100 µM (inactive)
N=C(N)NCCCC(NC(=O)c1cccc2c(=O)c3ccccc3[nH]c12)C(=O)O (stereo unspecified),> 100 µM (inactive),> 100 µM (inactive),> 100 µM (inactive),> 100 µM (inactive),> 100 µM (inactive),> 100 µM (inactive),> 100 µM (inactive),> 100,–,> 100 µM (inactive),> 100 µM (inactive),> 100 µM (inactive),> 100 µM (inactive),> 100 µM (inactive),> 100 µM (inactive),–,> 100 µM (inactive),> 100 µM (inactive),–
COC(=O)C(Cc1ccccc1OC)NC(=O)C(CC(=O)OCc1ccccc1)NC(=O)OCc1ccccc1 (stereo unspecified) (Cbz-Asp(OBn)-[Phe(2-OMe)]-OMe; configuration not given here),> 100 µM (inactive),> 100 µM (inactive),–,60 µM (inactive),41 µM (inactive),82 µM (inactive),60.3 µM (inactive),–,70.8 µM (inactive),55.5 µM (inactive),> 100 µM (inactive),46.3 µM (inactive),–,–,> 100 µM (inactive),> 100 µM (inactive),> 100 µM (inactive),34.5 µM (inactive),> 100 µM (inactive)
